{"source": "patent US20020052409A1", "about": "“Compounds and methods for treating mitochondria-associated diseases” (priority 1998, published 2002)", "data": [{"tested_on": "cybrid cells (MixCon, 1685 cells)", "experiment": "Ionomycin induced apoptosis in cybrid cells: cytochrome c release (ProteinChip/SELDI)", "assay_type": "cell-based, human", "settings": "100 μM at the same time ionomycin (10 μM) was introduced; FIGURE", "description": "In another aspect of the apoptosis assays, quantification of the mitochondrial protein cytochrome c that has leaked out of mitochondria in apoptotic cells may provide an apoptosis indicator that can be readily determined (Liu et al., Cell 86:147-157, 1996). Such quantification of cytochrome c may be performed spectrophotometrically, immunochemically or by other well established methods for detecting the presence of a specific protein. Release of cytochrome c from mitochondria in cells challenged with apoptotic stimuli (e.g., ionomycin, a well known calcium ionophore) can be followed by a variety of immunological methods. Matrix-assisted laser desorption ionization time of flight mass (MALDI-TOF) spectrometry coupled with affinity capture is particularly suitable for such analysis since apo-cytochrome c and holo cytochrome c can be distinguished on the basis of their unique molecular weights. […] The molecular weight of the protein is determined by its time of flight to the detector of the SELDI mass spectrometer. […]\nCytochrome c antibody was covalently bound to solid support chips containing a pre-activated surface (ProteinChip, Ciphergen, Palo Alto, Calif.). […] After removal of the Tris-saline buffer, the chip was rinsed with 1× PBS and was ready for capture of the antigen. […]", "values": [{"smiles": "N=C(N)NC(=N)Nc1ccccc1", "note": "[(1 1)]", "cytochrome c release": "attenuation of cytochrome release"}]}, {"tested_on": "1685 cells", "experiment": "Thapsigargin induced apoptosis (cell death, propidium iodide)", "assay_type": "cell-based, human", "settings": "(+thapsigargin, −compound)—(+thapsigargin, +compound); approximate values", "method": "(§1) In another aspect of the apoptosis assays, the ratio of living to dead cells, or the proportion of dead cells, in a population of cells exposed to an apoptogen is determined as a measure of the ultimate consequence of apoptosis. Living cells can be distinguished from dead cells using any of a number of techniques known to those skilled in the art.\n(§2) In order to determine the effect of compounds of this invention on the final endpoint of apoptosis (cell death), the following assays were carried out. […] Cells were plated (3×10^4 cells per well) on 96-well plates 48 hours prior to thapsigargin treatment. Thapsigargin (Calbiochem, La Jolla, Calif.) alone (final concentration, 1 μM), thapsigargin (1 μM) plus agent final concentration, 100 μM), agent alone (100 μM) in growth media, or growth media devoid of both thapsigargin and agent, were added to cells in four separate wells.\n(§3) Twenty-four hours after thapsigargin +/− agent treatment, propidium iodide (Sigma Chemical Co., St. Louis, Mo.) was added to each well at a final concentration of 10 μg/ml per well. […] The resulting fluorescence values correspond to cells in the monolayer of a well that are non-viable.\n(§4) Next, the media was aspirated, and the monolayer was fixed (killed) by adding 100 μl of 100% ethanol to each well followed by incubation at ambient temperature for 10 minutes. The fluorescense in each well was then read again. The fluorescence values resulting from the second reading correspond to the total number of cells (whether viable or non-viable at the time of the initial fluorescence reading) present in the monolayer of a well.", "values": [{"smiles": "CC(C)(C)c1cc(CNNC(=N)N)cc(C(C)(C)C)c1O", "note": "[Compound (1)]", "ΔCell Viability": "about 3.5"}]}, {"tested_on": "1685 cells", "experiment": "Thapsigargin induced apoptosis (cell death, propidium iodide)", "assay_type": "cell-based, human", "settings": "Homo sapiens; thapsigargin 1 μM plus agent 100 μM, 24 hours; read-out: % Non-Viable Cells with Thapsigargin and with Cmpd.", "method": "as §1, §2, §3, §4", "units": {"cytotoxicity at 100 µM": "%"}, "values": [{"smiles": "CCCCCCCCc1ccc(O)c(NC(=N)N)c1", "note": "[Compound (6)]", "cytotoxicity at 100 µM": 122}, {"smiles": "CC(C)(C)c1cc(CNNC(=N)N)cc(C(C)(C)C)c1O", "note": "[Compound (1)]", "cytotoxicity at 100 µM": 38.3}, {"smiles": "CN(Cc1cc(C(C)(C)C)c(O)c(C(C)(C)C)c1)NC(=N)N", "note": "[Compound (4)]", "cytotoxicity at 100 µM": 43.8}]}, {"tested_on": "1685 cells", "experiment": "Thapsigargin induced apoptosis (cell death, propidium iodide)", "assay_type": "cell-based, human", "settings": "[% Non-Viable Cells (with Thapsigargin, without Cmpd)] − [% Non-Viable Cells (with Thapsigargin, with Cmpd)]; agent 100 μM", "method": "as §1, §2, §3, §4", "units": {"Δ Cell Viability": "%"}, "values": [{"smiles": "N=C(N)Nc1ccc(N2CCOCC2)cc1", "note": "[(27)]", "Δ Cell Viability": 7.9}, {"smiles": "N=C(N)NC(=N)Nc1ccc(C(=O)O)cc1", "note": "[(34)]", "Δ Cell Viability": 2.9}, {"smiles": "N=C(N)Nc1ccc(O)c(C(=O)O)c1", "note": "[(23)]", "Δ Cell Viability": 0.6}, {"smiles": "CC(C)(C)c1cc(CNNC(=N)N)cc(C(C)(C)C)c1O", "note": "[Compound (1)]", "Δ Cell Viability": 3.2}, {"smiles": "COc1cc(C(=O)O)ccc1NC(=N)N", "note": "[(12)]", "Δ Cell Viability": 1.8}, {"smiles": "CN(Cc1cc(C(C)(C)C)c(O)c(C(C)(C)C)c1)NC(=N)N", "note": "[Compound (4)]", "Δ Cell Viability": 2.1}]}, {"tested_on": "1685 cells", "experiment": "Thapsigargin induced apoptosis (cell death, propidium iodide)", "assay_type": "cell-based, human", "settings": "thapsigargin 1 μM plus agent 100 μM, 24 hours", "method": "as §1, §2, §3, §4", "units": {"% Non-Viable Cells with Thapsigargin and with Cmpd.": "%"}, "values": [{"smiles": "N=C(N)NCCc1ccc(O)c(O)c1", "note": "[(28)]", "% Non-Viable Cells with Thapsigargin and with Cmpd.": 52.3}, {"smiles": "N=C(N)Nc1ccc(F)cc1", "note": "[(17)]", "% Non-Viable Cells with Thapsigargin and with Cmpd.": 56.9}, {"smiles": "N=C(N)Nc1ccccc1CO", "note": "[(19)]", "% Non-Viable Cells with Thapsigargin and with Cmpd.": 44.3}, {"smiles": "N=C(N)Nc1ccc(N2CCOCC2)cc1", "note": "[(27)]", "% Non-Viable Cells with Thapsigargin and with Cmpd.": 42.5}, {"smiles": "COc1cc(NC(=N)N)c(Cl)cc1C(=O)O", "note": "[(13)]", "% Non-Viable Cells with Thapsigargin and with Cmpd.": 52.8}, {"smiles": "N=C(N)NC(=N)Nc1ccc(C(=O)O)cc1", "note": "[(34)]", "% Non-Viable Cells with Thapsigargin and with Cmpd.": 42.4}, {"smiles": "N=C(N)Nc1ccc(O)c(C(=O)O)c1", "note": "[(23)]", "% Non-Viable Cells with Thapsigargin and with Cmpd.": 49.8}, {"smiles": "N=C(N)Nc1cc(C(F)(F)F)cc(C(F)(F)F)c1", "note": "[(14)]", "% Non-Viable Cells with Thapsigargin and with Cmpd.": 47.9}, {"smiles": "CCCCCCCCc1ccc(NC(=N)N)cc1", "note": "[Compound (31)]", "% Non-Viable Cells with Thapsigargin and with Cmpd.": 100.0}, {"smiles": "COc1cc(C(=O)O)ccc1NC(=N)N", "note": "[(12)]", "% Non-Viable Cells with Thapsigargin and with Cmpd.": 37.5}, {"smiles": "N=C(N)Nc1cc(F)cc(F)c1", "note": "[(15)]", "% Non-Viable Cells with Thapsigargin and with Cmpd.": 42.2}, {"smiles": "CCCCCCOc1ccc(NC(=N)N)cc1", "note": "[(16)]", "% Non-Viable Cells with Thapsigargin and with Cmpd.": 121.2}, {"smiles": "COc1cc(NC(=N)N)cc(OC)c1OC", "note": "[(3)]", "% Non-Viable Cells with Thapsigargin and with Cmpd.": 46.7}]}, {"tested_on": "SH-SY5Y neuroblastoma cells", "experiment": "Ionomycin-induced apoptosis in neuroblastoma cells (membrane blebbing, light microscopy)", "assay_type": "cell-based, human", "settings": "2 mM, simultaneously with 10 μM ionomycin; 6h incubation; ionomycin alone approximately 80%, untreated <5%", "method": "SH-SY5Y neuroblastoma cells (1×10^5 cells) were rinsed with one volume 1X PBS, and then treated with 10 μM ionomycin (Calbiochem, San Diego, Cass.) in DMEM supplemented with 10% fetal calf serum (FCS) (Gibco, Life Technologies, Grand Island, N.Y.) for 10 minutes, followed by two washes with DMEM (10% FCS). After 6h incubation at 37° C. in DMEM (10% FCS), cells were visualized by light microscopy (20X magnification). […] When cells were simultaneously treated with ionomycin and 2 mM creatine, the proportion of cells undergoing apoptosis as evidenced by membrane blebbing was reduced to approximately 10%.", "values": [{"smiles": "CN(CC(=O)O)C(=N)N", "note": "[Creatine]", "proportion of cells undergoing apoptosis as evidenced by membrane blebbing": "approximately 10%"}]}, {"tested_on": "human cytoplasmic hybrid (“cybrid”) cells", "experiment": "Assay for mitochondrial permeability transition using DASPMI (ionomycin-induced fluorescence decay)", "assay_type": "cell-based", "settings": "DASPMI-loaded cybrid cells, ionomycin induced membrane potential collapse", "units": {"IC50": "µM"}, "quoted_text": "B. Assay for Mitochondrial Permeability Transition (MPT) Using 2-,4-Dimethvlaminostyryl-N-Methvlpyridinium (DASPMI).\nAccording to this assay, one may determine the ability of a mitochondria protecting agent of the invention to inhibit the loss of mitochondrial membrane potential that accompanies mitochondrial dysfunction. […] This loss of membrane potential or mitochondrial permeability transition (MPT) can be quantitatively measured using the mitochondria-selective fluorescent probe 2-,4-dimethylaminostyryl-N-methylpyridinium (DASPMI).\nUpon introduction into cell cultures, DASPMI accumulates in mitochondria in a manner that is dependent on, and proportional to, mitochondrial membrane potential. If mitochondrial function is disrupted in such a manner as to compromise membrane potential, the fluorescent indicator compound leaks out of the membrane bounded organelle with a concomitant loss of detectable fluorescence. Fluorimetric measurement of the rate of decay of mitochondria associated DASPMI fluorescence provides a quantitative measure of loss of membrane potential, or MPT.\nCulture supernatants are then removed and various concentrations of candidate mitochondria protecting agents diluted into HBSS from DMF stocks, or vehicle controls, are added at various concentrations. Mitochondria protecting agents are introduced to cells either before, or at the same time as, introduction of the cells to ionomycin (described below).\nFluorescence of each microculture in the 96-well plate is quantified immediately using a Molecular Devices fmax™ fluorimetric plate reader (Molecular Devices Corp., Sunnyvale, Calif.; excitation wavelength=485 nm; emission wavelength=590 nm) and to fluorescence is recorded. Thereafter, induction of mitochondrial membrane potential collapse is initiated by the addition of ionomycin (Calbiochem, San Diego, Calif.). Ionomycin stock solutions of various concentrations from 0.1-40 μM are prepared in warm Hank's balanced salt solution (HBSS) and diluted for addition to cells to achieve a final concentration of 0.05-20 μM, with final concentrations of 4-10 μM being preferred. Fluorescence decay of DASPMI-loaded, ionomycin induced cells is monitored as a function of time from 0-500 seconds following addition of ionomycin. The maximum negative slope (V-max) is calculated from a subset of the data using analysis software provided by the fluorimetric plate reader manufacturer. In addition, the initial and final signal intensities are determined and the effects of candidate mitochondria protecting agents on the rate of signal decay are quantified.", "values": [{"smiles": "CN(CC(=O)O)C(=N)N", "note": "[Creatine]", "IC50": 2000}, {"smiles": "N=C(N)Nc1ccc(C(=O)O)cc1", "note": "[4-Guanidinobenzoic Acid]", "IC50": 1000}, {"smiles": "CN(Cc1cc(C(C)(C)C)c(O)c(C(C)(C)C)c1)NC(=N)N", "note": "[Compound (4)]", "IC50": 10}, {"smiles": "NC1=NCCN1CC(=O)O", "note": "[Cyclocreatine]", "IC50": 3000}]}, {"tested_on": "1685 cells", "experiment": "Cytotoxic effects of compounds, no thapsigargin (propidium iodide)", "assay_type": "cell-based, human", "settings": "not given", "method": "(§5) In order to determine the effect of compounds of this invention on the final endpoint of apoptosis (cell death), the following assays were carried out. The cells used were 1685 cells, “1685” being the designation of a cybrid cell line derived from SH-SY5Y and containing mitochondria from a patient having Alzheimer's disease (see U.S. Pat. No. 5,888,498, issued Mar. 30, 1999, hereby incorporated by reference). Cells were plated (3×10^4 cells per well) on 96-well plates 48 hours prior to thapsigargin treatment. Thapsigargin (Calbiochem, La Jolla, Calif.) alone (final concentration, 1 μM), thapsigargin (1 μM) plus agent final concentration, 100 μM), agent alone (100 μM) in growth media, or growth media devoid of both thapsigargin and agent, were added to cells in four separate wells.\n(§6) Twenty-four hours after thapsigargin +/− agent treatment, propidium iodide (Sigma Chemical Co., St. Louis, Mo.) was added to each well at a final concentration of 10 μg/ml per well. The cells were incubated at ambient temperature for 10 minutes, after which the fluorescence (excitation max=536 nm, 544 nm used for excitation; emission max=617, readings at 612 nm) was determined for each individual well in a fmax™ fluorescence microplate reader (Molecular Devices, Sunnyvale, Calif.). The resulting fluorescence values correspond to cells in the monolayer of a well that are non-viable.\nas §4\n(§7) The results, presented in Table 4 below, are expressed as the percentage of non-viable cells as a proportion of the […] cells (fixed controls).\n(§8) The ΔCell Viability values resulting from treating cells with agents in this class in the absence of thapsigargin (Table 4, infra) closely parallel the ΔCell Viability values that result when cells are treated with the respective agent and thapsigargin ([…]).", "units": {"Δ Cell Viability": "%"}, "values": [{"smiles": "N=C(N)Nc1ccc(F)cc1", "note": "[(17)]", "Δ Cell Viability": "−23.6"}, {"smiles": "COc1cc(NC(=N)N)c(Cl)cc1C(=O)O", "note": "[(13)]", "Δ Cell Viability": "−22.2"}, {"smiles": "CCCCCCCCc1ccc(NC(=N)N)cc1", "note": "[Compound (31)]", "Δ Cell Viability": "−83.5"}, {"smiles": "CCCCCCOc1ccc(NC(=N)N)cc1", "note": "[(16)]", "Δ Cell Viability": "−106.7"}]}, {"tested_on": "1685 cells", "experiment": "Cytotoxic effects of compounds, no thapsigargin (propidium iodide)", "assay_type": "cell-based, human", "settings": "no thapsigargin; [% Non-Viable Cells (without Cmpd)] − [% Non-Viable Cells (with Cmpd)]", "method": "as §5, §6, §4, §7, §8", "units": {"Δ Cell Viability": "%"}, "values": [{"smiles": "CCCCCCCCc1ccc(O)c(NC(=N)N)c1", "note": "[Compound (6)]", "Δ Cell Viability": "−109.0"}]}, {"tested_on": "1685 cells", "experiment": "Cytotoxic effects of compounds, no thapsigargin (propidium iodide)", "assay_type": "cell-based, human", "settings": "no thapsigargin; agent alone 100 μM, 24 hours", "method": "as §5, §6, §4, §7, §8", "units": {"% Non-Viable Cells with Cmpd.": "%"}, "values": [{"smiles": "CCCCCCCCc1ccc(O)c(NC(=N)N)c1", "note": "[Compound (6)]", "% Non-Viable Cells with Cmpd.": 125.2}]}]}
